From US7838207B2, “Surrogate cell-based system and method for assaying the activity of hepatitis C virus NS3 protease” (Boehringer Ingelheim Canada Ltd., priority 1999, dated 2010)

Test system: tetracycline transactivator (tTA)
Experiment: Tetracycline internal control: luciferase assay in 293 cells co-transfected with chimera G and pUHC13-3 reporter
Format: cell-based
Settings: in the presence of tetracycline (over 2,000,000 cps in its absence)
From the text: Expression of the luciferase reporter gene is controlled by NS3 processing of a tetracycline responsive transcriptional trans-activator. Luciferase assay performed on extracts of 293 cells co-transfected with construct G or H, or the positive control tTA-producing plasmid (pUHD15-1), and the pUHC13-3 plasmid containing the luciferase reporter. Closed and open bars indicate the absence and presence of tetracycline, respectively. Note that construct G produces a tetracycline controlled signal; inactivation of the NS3 protease activity (in construct H) abolishes this signal.
The three families (clones A, D, and G) of HCV-tTA chimeras, and their active site and cleavage site mutant variants, were each co-transfected with the pUHC13-3 reporter into 293 cells to determine the extent of NS3-dependent luciferase expression (FIG. 6). Cells in 35 mm wells were co-transfected with each of the constructs described in FIGS. 2A to 2I and the pUHC13-3 reporter plasmid using the calcium phosphate method. The cells were harvested 48 hours post-transfection and washed twice in phosphate buffered saline. […] An aliquot of 10 μl of supernatant was mixed with 50 μl of the luciferase assay reagent (Promega) in a 96 well plate and the amount of light produced measured using a Digene luminometer or Packard top-count scintillation counter. […]

`CN(C)[C@@H]1C(O)=C(C(N)=O)C(=O)[C@@]2(O)C(O)=C3C(=O)c4c(O)cccc4[C@@](C)(O)[C@H]3C[C@@H]12` [tetracycline] gave a Luciferase activity of 40000 cps.
